Test results: ChEMBL document CHEMBL1146257, “2,6-Quinolinyl derivatives as potent VLA-4 antagonists” (Bioorg Med Chem Lett, 2007)
≈ marks a conversion by molar mass, not a printed value.

How the values were obtained:
[1] = Inhibition of human recombinant VACM1 binding to VAL4 expressed in U937 cells by adhesion test; format: cell-based; conditions: u-937
[2] = Inhibition of T cell activation assessed as CD3-VACM interaction; format: functional, cell-based, Homo sapiens
[3] = Solubility at pH 7.4; format: physicochemical; conditions: buffer
[4] = Oral bioavailability in monkey; format: ADME, organism-based, Macaca mulatta; conditions: rhesus monkey, in vivo
[5] = Oral bioavailability in dog; format: ADME, organism-based, Canis lupus familiaris; conditions: in vivo
[6] = Distribution coefficient, log D of the compound; format: physicochemical; conditions: octanol/water
[7] = Oral bioavailability in mouse; format: ADME, organism-based; conditions: in vivo
[8] = molecular target: Integrin alpha-4/beta-1 (VLA-4) (Homo sapiens); test: Inhibition of VCAM binding to integrin alpha4beta1 by human whole blood assay
[9] = Inhibition of fibronectin binding to VAL4 expressed in Jurkat cells by adhesion test; format: cell-based, Homo sapiens
[10] = Oral bioavailability in rat; format: ADME, organism-based; conditions: in vivo
U-937 = test: Inhibition of human recombinant VACM1 binding to VAL4 expressed in U937 cells at 1 uM by adhesion test; format: cell-based

Structure (SMILES): O=C(NC(Cc1ccc2nc(-c3ccccc3Br)ccc2c1)C(=O)O)c1c(Cl)cccc1Cl (stereo not drawn)
- IC50 [1]: 154 nM

Structure (SMILES): COc1cccc(OC)c1-c1ccc(C[C@H](NC(=O)c2c(Cl)cccc2Cl)C(=O)O)cc1
- IC50 [2]: 99 nM
- IC50 [1]: 18 nM

Structure (SMILES): O=C(NC(Cc1ccc2nc(-c3ccccc3C(F)(F)F)ccc2c1)C(=O)O)c1c(Cl)cccc1Cl (stereo not drawn)
- IC50 [1]: 92 nM

Structure (SMILES): O=C(NC(Cc1ccc2nc(-c3c(Cl)cccc3Cl)ccc2c1)C(=O)O)c1ccccc1 (stereo not drawn)
- IC50 [1]: 5640 nM

Structure (SMILES): O=C(N[C@@H](Cc1ccc2nc(-c3c(Cl)cccc3Cl)ccc2c1)C(=O)O)c1c(Cl)cccc1Cl
- solubility [3]: 1.5 µg/mL (≈ 2.81 µM)
- bioavailability [4]: 23%
- IC50 [2]: 43 nM
- bioavailability [5]: 59%
- IC50 [1]: 3.9 nM
- logD [6]: 1.47
- bioavailability [7]: 35%
- IC50 [8]: 95 nM
- IC50 [9]: 1.6 nM
- bioavailability [10]: 41%

Structure (SMILES): O=C(O)C(Cc1ccc2nc(-c3c(Cl)cccc3Cl)ccc2c1)NC(=O)C1(c2ccc(Cl)cc2)CCCC1 (stereo not drawn)
- IC50 [1]: 6.6 nM

Structure (SMILES): Cc1cccc(C)c1C(=O)NC(Cc1ccc2nc(-c3c(Cl)cccc3Cl)ccc2c1)C(=O)O (stereo not drawn)
- IC50 [1]: 37.2 nM

Structure (SMILES): CS(=O)(=O)c1ccc(C(=O)NC(Cc2ccc3nc(-c4c(Cl)cccc4Cl)ccc3c2)C(=O)O)c(Cl)c1 (stereo not drawn)
- IC50 [1]: 3.5 nM

Structure (SMILES): O=C(NC(Cc1ccc2nc(-c3ccncc3)ccc2c1)C(=O)O)c1c(Cl)cccc1Cl (stereo not drawn)
- IC50 [1]: 381 nM

Structure (SMILES): COc1cccc(OC)c1C(=O)NC(Cc1ccc2nc(-c3c(Cl)cccc3Cl)ccc2c1)C(=O)O (stereo not drawn)
- IC50 [1]: 53.7 nM

Structure (SMILES): O=C(NC(Cc1ccc2nc(-c3c(Cl)cccc3Cl)ccc2c1)C(=O)O)c1c(F)cccc1F (stereo not drawn)
- IC50 [1]: 435 nM

Structure (SMILES): Cc1cc(Cl)c(C(=O)NC(Cc2ccc3nc(-c4c(Cl)cccc4Cl)ccc3c2)C(=O)O)c(Cl)n1 (stereo not drawn)
- IC50 [1]: 7.9 nM

Structure (SMILES): O=C(NC(Cc1ccc2nc(-c3c(F)cccc3F)ccc2c1)C(=O)O)c1c(Cl)cccc1Cl (stereo not drawn)
- IC50 [1]: 372 nM

Structure (SMILES): COc1cccc(OC)c1-c1ccc2cc(CC(NC(=O)c3c(Cl)cccc3Cl)C(=O)O)ccc2n1 (stereo not drawn)
- IC50 [1]: 20 nM

Structure (SMILES): O=C(NC(Cc1ccc2nc(-c3c(Cl)cccc3[N+](=O)[O-])ccc2c1)C(=O)O)c1c(Cl)cccc1Cl (stereo not drawn)
- IC50 [1]: 6.5 nM

Structure (SMILES): O=C(O)C(Cc1ccc2nc(-c3c(Cl)cccc3Cl)ccc2c1)NC(=O)[C@@H]1CCC(=O)N1Cc1ccccc1 (stereo partly drawn)
- IC50 [1]: 15.3 nM

Structure (SMILES): COc1ccc2ccccc2c1-c1ccc2cc(CC(NC(=O)c3c(Cl)cccc3Cl)C(=O)O)ccc2n1 (stereo not drawn)
- IC50 [1]: 7.3 nM

Structure (SMILES): O=C(NC(Cc1ccc2nc(-c3c(F)cccc3Cl)ccc2c1)C(=O)O)c1c(Cl)cccc1Cl (stereo not drawn)
- IC50 [1]: 20 nM

Structure (SMILES): O=C(NC(Cc1ccc2nc(-c3nccs3)ccc2c1)C(=O)O)c1c(Cl)cccc1Cl (stereo not drawn)
- inhibition (U-937): 38%

Structure (SMILES): Cc1cccc(C)c1-c1ccc2cc(CC(NC(=O)c3c(Cl)cccc3Cl)C(=O)O)ccc2n1 (stereo not drawn)
- IC50 [1]: 102 nM

Structure (SMILES): Cc1cccc(Cl)c1C(=O)NC(Cc1ccc2nc(-c3c(Cl)cccc3Cl)ccc2c1)C(=O)O (stereo not drawn)
- IC50 [1]: 3.9 nM

Structure (SMILES): O=C(N[C@H](Cc1ccc2nc(-c3c(Cl)cccc3Cl)ccc2c1)C(=O)O)c1c(Cl)cccc1Cl
- IC50 [1]: > 3200 nM

Structure (SMILES): CS(=O)(=O)c1ccc(-c2ccc3cc(CC(NC(=O)c4c(Cl)cccc4Cl)C(=O)O)ccc3n2)cc1 (stereo not drawn)
- inhibition (U-937): 82%

Structure (SMILES): O=C(NC(Cc1ccc2nc(-c3ccccc3)ccc2c1)C(=O)O)c1c(Cl)cccc1Cl (stereo not drawn)
- inhibition (U-937): 24%

Structure (SMILES): O=C(NC(Cc1ccc2nc(-c3c(Cl)cccc3Cl)ccc2c1)C(=O)O)c1c(Cl)cccc1Cl (stereo not drawn)
- IC50 [1]: 7.8 nM

Structure (SMILES): O=C(NC(Cc1ccc2nc(-c3cc(Cl)nc(Cl)c3)ccc2c1)C(=O)O)c1c(Cl)cccc1Cl (stereo not drawn)
- IC50 [1]: 8.6 nM

Structure (SMILES): O=C(NC(Cc1ccc2nc(-c3cc(C(F)(F)F)ccc3Cl)ccc2c1)C(=O)O)c1c(Cl)cccc1Cl (stereo not drawn)
- IC50 [1]: 208 nM

Structure (SMILES): O=C(NC(Cc1ccc2nc(-c3ccc(Cl)cc3Cl)ccc2c1)C(=O)O)c1c(Cl)cccc1Cl (stereo not drawn)
- IC50 [1]: 748 nM
